According to patent US20150126467A1, “USE OF ALGINATE OLIGOMERS TO ENHANCE THE EFFECTS OF ANTIFUNGAL AGENTS” (AlgiIPharma AS, priority 2011, published 2015):
Values after ≈ are worked out from the molar mass of the structure shown. Read-outs that look alike come from different tables or passages of the source.

Tests used:
Type in all cases: cell-based
[1] = test system: Aspergillus fumigatus CCUG 17460; assay: Robotic MIC assay, Aspergillus (Example 4); settings: Aspergillus fumigatus, CCUG17460, 48 h, Mueller-Hinton broth, read-out: Minimum Inhibitory Concentration (MIC)
Experimental: Aspergillus sp. was grown at 30° C. for 96 h on YM-agar. Spores and aerial mycelium was cut out from the agar, suspended in 1 ml YM-broth and dispersed with glass beads (1 mm) in a mini bead beater for 2 min. Glycerol was added to the suspension to 10% and frozen at −80° C.
Each batch of frozen stock culture was then characterized in separate growth experiments using Mueller-Hinton broth to determine the minimum amount of inoculum giving satisfactory growth after 48 h under the conditions relevant for the MIC assay. This inoculation procedure is used in order to reduce day to day variation in bioassays.
Robotic minimum inhibitory concentration (MIC) assay was performed as follows. OligoG CF-5/20 was dissolved in medium (Mueller-Hinton broth) to 1.25 times of the desired assay concentrations (2, 6 and 10%). […].
Two-fold serial dilutions of antifungal agents were made in medium with different concentrations of OligoG CF-5/20, and the solutions were placed in four parallel wells in Nunc 384-well micro plates (30 μl per well in Nunc 242757 microplates). A group of 8 wells with no addition of antifungal agents for each OligoG CF-5/20 concentration was included on each micro plate as growth reference. Each well in the 384-well assay plates was added 7.5 μl of the MH medium inoculated with frozen stock culture of the relevant strains.
The microplates were placed in plastic bags and incubated without shaking at 34° C. The optical density at 600 nm in the microwells was measured after approximately 24 and 48 hours of incubation. […]

[2] = test system: C. albicans CCUG 39343; assay: Robotic MIC assay, Candida strains (Example 2); settings: Candida albicans, CCUG39343, 48 h, Mueller-Hinton broth, read-out: Minimum Inhibitory Concentration (MIC)
Experimental: (§1) A robotic MIC Assay was performed as follows. OligoG CF-5/20 were dissolved in medium (Mueller-Hinton broth or M19 broth depending on experiment) to 1.25 times of the desired assay concentrations (2, 6 and 10%). The antifungal agents under test were dissolved in medium without OligoG CF-5/20 and in medium with OligoG CF-5/20 at a concentration of 1.25 times the highest desired assay concentrations. For experiments where the effect of adding different concentrations of Na^+ was investigated, NaCl was dissolved in medium to the desired concentrations (10, 30 and 50 mM).
(§2) Two-fold serial dilutions of antifungal agents were made in medium with different concentrations of OligoG CF-5/20, and the solutions were placed in four parallel wells in Nunc 384-well micro plates (30 μl per well in Nunc 242757 microplates). A group of 8 wells with no addition of antifungal agents for each OligoG CF-5/20 concentration was included on each microplate as growth reference. To each well in the 384-well assay plates was added 7.5 μl of medium inoculated with a frozen stock culture of Candida albicans (strain CCUG 39343).
(§3) The micro plates were placed in plastic bags and incubated without shaking at 34° C. The optical density at 600 nm in the microwells was measured after approximately 13, 18, 24 and 34 hours of incubation, and the relative growth yield in each well was calculated based on the growth in the reference groups.
(§4) The robotic assay described in Example 1 was employed in this Example. Strains were grown in Mueller-Hinton broth (LAB114 from Lab M Limited) and MIC values (μg ml-1) were determined for each antifungal after incubation for 48 h in the presence of 0, 2, 6 and 10% OligoG CF-5/20 G-fragments. […] OligoG CF-5/20 G-fragments were provided by AlgiPharma AS, Norway.
(§5) Candida strains used were as follows: • C. albicans CCUG 39343 (strain from culture collection) • C. parapsillosis ATCC 22019T (strain from culture collection) • C. krusei 141/03 (candidosis) • C. krusei 249/03(2) (ulceration) • C. lusitaniae 994/01(2) (candidosis) • C. tropicalis 12 (vaginal) • C. tropicalis 75 (vaginal) • C. tropicalis 519468 (urinary) • C. tropicalis 544123 (urinary) • C. tropicalis 250/03 (candidosis) • C. tropicalis AG1 (oral) • C. tropicalis T2.2 (oral)

[3] = test system: C. krusei 141/03 (candidosis); assay: Robotic MIC assay, Candida strains (Example 2); settings: Pichia kudriavzevii, 48 h, Mueller-Hinton broth, read-out: Minimum Inhibitory Concentration (MIC)
Experimental: as §1, §2, §3, §4, §5

[4] = test system: C. krusei 249/03(2) (ulceration); assay: Robotic MIC assay, Candida strains (Example 2); settings: Pichia kudriavzevii, 48 h, Mueller-Hinton broth, read-out: Minimum Inhibitory Concentration (MIC)
Experimental: as §1, §2, §3, §4, §5

[5] = test system: C. lusitaniae 994/01(2) (candidosis); assay: Robotic MIC assay, Candida strains (Example 2); settings: Clavispora lusitaniae, 48 h, Mueller-Hinton broth, read-out: Minimum Inhibitory Concentration (MIC)
Experimental: as §1, §2, §3, §4, §5

[6] = test system: C. tropicalis 12 (vaginal); assay: Robotic MIC assay, Candida strains (Example 2); settings: Candida tropicalis, 48 h, Mueller-Hinton broth, read-out: Minimum Inhibitory Concentration (MIC)
Experimental: as §1, §2, §3, §4, §5

[7] = test system: C. tropicalis 250/03 (candidosis); assay: Robotic MIC assay, Candida strains (Example 2); settings: Candida tropicalis, 48 h, C. tropicalis 250/03 Candiosis, Mueller-Hinton broth, read-out: Minimum Inhibitory Concentration (MIC)
Experimental: as §1, §2, §3, §4, §5

[8] = test system: C. tropicalis 519468 (urinary); assay: Robotic MIC assay, Candida strains (Example 2); settings: Candida tropicalis, 48 h, Mueller-Hinton broth, read-out: Minimum Inhibitory Concentration (MIC)
Experimental: as §1, §2, §3, §4, §5

[9] = test system: C. tropicalis 544123 (urinary); assay: Robotic MIC assay, Candida strains (Example 2); settings: Candida tropicalis, 48 h, Mueller-Hinton broth, read-out: Minimum Inhibitory Concentration (MIC)
Experimental: as §1, §2, §3, §4, §5

[10] = test system: C. tropicalis 75 (vaginal); assay: Robotic MIC assay, Candida strains (Example 2); settings: Candida tropicalis, 48 h, Mueller-Hinton broth, read-out: Minimum Inhibitory Concentration (MIC)
Experimental: as §1, §2, §3, §4, §5

[11] = test system: C. tropicalis AG1 (oral); assay: Robotic MIC assay, Candida strains (Example 2); settings: Candida tropicalis, 48 h, Mueller-Hinton broth, read-out: Minimum Inhibitory Concentration (MIC)
Experimental: as §1, §2, §3, §4, §5

[12] = test system: C. tropicalis T2.2 (oral); assay: Robotic MIC assay, Candida strains (Example 2); settings: Candida tropicalis, 48 h, Mueller-Hinton broth, read-out: Minimum Inhibitory Concentration (MIC)
Experimental: as §1, §2, §3, §4, §5

[13] = A. fumigatus CCUG 17460, 0% OligoG
[14] = A. fumigatus CCUG 17460, 2% OligoG
[15] = A. fumigatus CCUG 17460, 6% OligoG
[16] = A. fumigatus CCUG 17460, 10% OligoG

Q: With `C[C@@H]1[C@H](O)[C@@H](C)/C=C/C=C/C=C/C=C/C=C/C=C/C=C/[C@H](O[C@@H]2O[C@H](C)[C@@H](O)[C@H](N)[C@@H]2O)C[C@@H]2O[C@](O)(C[C@@H](O)C[C@@H](O)[C@H](O)CC[C@@H](O)C[C@@H](O)CC(=O)O[C@H]1C)C[C@H](O)[C@H]2C(=O)O` [Amphotericin B, amphotericin B] as the molecule, how does the MIC [1, 13] read?
A: Its MIC is 0.75 µg/mL (≈ 0.812 µM).

Q: And the MIC [1, 14]?
A: Its MIC is 0.375 µg/mL (≈ 0.406 µM).

Q: What about the MIC [1, 15] of the same molecule?
A: The MIC was 0.375 µg/mL (≈ 0.406 µM).

Q: What about the MIC [1, 16] of the same molecule?
A: Its MIC is 0.188 µg/mL (≈ 0.203 µM).

Q: Which results are given for `OC(Cn1cncn1)(Cn1cncn1)c1ccc(F)cc1F` [Fluconazole, fluconazole]?
A: MIC ([2]; 0% OligoG): 16 µg/mL (≈ 52.2 µM); MIC ([2]; 2% OligoG): 16 µg/mL (≈ 52.2 µM); MIC ([2]; 6% OligoG): 8 µg/mL (≈ 26.1 µM); MIC ([2]; 10% OligoG): 4 µg/mL (≈ 13.1 µM); MIC ([3]; 0% OligoG): 128 µg/mL (≈ 418 µM); MIC ([3]; 2% OligoG): 64 µg/mL (≈ 209 µM); MIC ([3]; 6% OligoG): 64 µg/mL (≈ 209 µM); MIC ([3]; 10% OligoG): 64 µg/mL (≈ 209 µM); MIC ([4]; 0% OligoG): 8 µg/mL (≈ 26.1 µM); MIC ([4]; 2% OligoG): 4 µg/mL (≈ 13.1 µM); MIC ([4]; 6% OligoG): 2 µg/mL (≈ 6.53 µM); MIC ([4]; 10% OligoG): 1 µg/mL (≈ 3.27 µM); MIC ([5]; 0% OligoG): 0.5 µg/mL (≈ 1.63 µM); MIC ([5]; 2% OligoG): 0.25 µg/mL (≈ 0.816 µM); MIC ([5]; 6% OligoG): < 0.125 µg/mL; MIC ([5]; 10% OligoG): < 0.125 µg/mL; MIC ([6]; 0% OligoG): 1 µg/mL (≈ 3.27 µM); MIC ([6]; 2% OligoG): 1 µg/mL (≈ 3.27 µM); MIC ([6]; 6% OligoG): < 0.125 µg/mL; MIC ([6]; 10% OligoG): < 0.125 µg/mL; MIC ([7]; 0% OligoG): 8 µg/mL (≈ 26.1 µM); MIC ([7]; 2% OligoG): 4 µg/mL (≈ 13.1 µM); MIC ([7]; 6% OligoG): 2 µg/mL (≈ 6.53 µM); MIC ([7]; 10% OligoG): 2 µg/mL (≈ 6.53 µM); MIC ([8]; 0% OligoG): 128 µg/mL (≈ 418 µM); MIC ([8]; 2% OligoG): 1 µg/mL (≈ 3.27 µM); MIC ([8]; 6% OligoG): 0.5 µg/mL (≈ 1.63 µM); MIC ([8]; 10% OligoG): 0.25 µg/mL (≈ 0.816 µM); MIC ([9]; 0% OligoG): 1 µg/mL (≈ 3.27 µM); MIC ([9]; 2% OligoG): 1 µg/mL (≈ 3.27 µM); MIC ([9]; 6% OligoG): 0.5 µg/mL (≈ 1.63 µM); MIC ([9]; 10% OligoG): 0.25 µg/mL (≈ 0.816 µM); MIC ([10]; 0% OligoG): 2 µg/mL (≈ 6.53 µM); MIC ([10]; 2% OligoG): 1 µg/mL (≈ 3.27 µM); MIC ([10]; 6% OligoG): 0.5 µg/mL (≈ 1.63 µM); MIC ([10]; 10% OligoG): 0.25 µg/mL (≈ 0.816 µM); MIC ([11]; 0% OligoG): 128 µg/mL (≈ 418 µM); MIC ([11]; 2% OligoG): > 128 µg/mL; MIC ([11]; 6% OligoG): 0.5 µg/mL (≈ 1.63 µM); MIC ([11]; 10% OligoG): 0.125 µg/mL (≈ 0.408 µM); MIC ([12]; 0% OligoG): > 128 µg/mL; MIC ([12]; 2% OligoG): 0.5 µg/mL (≈ 1.63 µM); MIC ([12]; 6% OligoG): 0.25 µg/mL (≈ 0.816 µM); MIC ([12]; 10% OligoG): < 0.125 µg/mL; MIC [1, 13]: > 128 µg/mL; MIC [1, 14]: > 128 µg/mL; MIC [1, 15]: 128 µg/mL (≈ 418 µM); MIC [1, 16]: 128 µg/mL (≈ 418 µM)

Q: How did the MIC [1, 13] turn out when `Clc1ccc(COC(Cn2ccnc2)c2ccc(Cl)cc2Cl)c(Cl)c1` (centres unmarked) [Miconazole, miconazole] was run?
A: Its MIC is 4 µg/mL (≈ 9.61 µM).

Q: And the MIC [1, 14]?
A: Its MIC is 2 µg/mL (≈ 4.81 µM).

Q: And the MIC [1, 15]?
A: Its MIC is 2 µg/mL (≈ 4.81 µM).

Q: And the MIC [1, 16]?
A: Its MIC is 2 µg/mL (≈ 4.81 µM).
